pIC50: −log10 of the molar value.
Tested on: S6RP serine-240/244 phosphorylation
Test: In vitro Phospho-S6 cellular assay (pS6RP S240/244) in HEK293T/17 cells
Format: cell-based
Conditions: Homo sapiens, 2 hours, read-out: pS6 IC50
Text: Activation of mTOR signaling results in phosphorylation of several downstream targets. In cells, mTOR exists in two different protein complexes. The mTOR Complex-1 (mTORC1) phosphorylates and activates S6 Kinase 1 (S6K1) and S6 Kinase 2 (S6K2) (also known as p70S6K) which then phosphorylate S6 Ribosomal Protein (S6RP) (also known as RPS6)3. S6RP is phosphorylated on serine 235, serine 236, serine 240 and serine 244 by both pS6K1 and pS6K2. The mTOR Complex-2 (mTORC2) phosphorylates AKT on serine 473 which activates the AKT signaling pathway.
The assay measures a test compound's inhibition of S6RP serine-240/244 phosphorylation and inhibition of Akt serine-473 phosphorylation in human embryonic kidney derived HEK293T/17 cells (ATCC CRL-11268).
The HEK293T/17 cell line is maintained in DMEM media (Invitrogen catalogue number 41965-039) supplemented with 10% FCS at 37° C. in a 5% CO2 humidified incubator.
Cells are seeded in 96-well plates at 40,000 cells/well (pS6RP S240/244 assay) or 80,000 cells/well (pAkt S473 assay) in 90 μl growth media (DMEM, 2% FCS). Plates are incubated for 1 hour in a humidified incubator to allow the cells to adhere. Cells are treated with 8 concentrations of test compounds or DMSO alone for controls (final DMSO concentration 0.1%) and incubated at 37° C. for 2 hours. Then 20 μl of 5× concentrated lysis buffer (750 mM NaCl, 100 mM Tris pH7.4, 5 mM ADTA, 5 mM EGTA, 5% Triton X-100) is added, plates are sealed and incubated for 15 minutes at 4° C. with gentle shaking. After cell lysis, 25 μl cell lysate is transferred to a MesoScale plate coated with an antibody to pS6RP Ser240/244 (MesoScale Discovery K150DGD-3) or an antibody to pAkt Ser 473 (MesoScale Discovery K151DGD-3). Plates have been blocked before by incubation with 150 μl MesoScale Discovery Blocking Solution-A for 1 hour at room temperature followed by washing with 150 μl 1× Tris wash buffer per well. After the transfer of the cell lysate to the MSD plate, the pS6RP (or pAkt) protein is captured on the coated antibody by incubation at room temperature for 1 hour with gentle shaking. After the capture step the plate is washed three times with 150 μl of 1× Tris wash buffer per well. Then 25 μl detection antibody conjugated with a Sulfo-Tag is added and incubated for 1 hour at room temperature with gentle shaking. Subsequently the antibody solution is removed and the plate is washed 3 times with 150 μl×Tris wash buffer per well and 150 μl Read buffer is added. The plates are analysed on a MSD 2400 Plate Reader (MesoScale Discovery). Data analysis is performed using nonlinear regression for a sigmoidal dose-response with a variable slope.

Row | pIC50 | Compound
1 | 6.66 | CNC(=O)Nc1ccc(-c2nc3c(c(N4CCOC[C@@H]4C)n2)CN(CC2CC2)C3)cc1 [Example 47, (S)-1-(4-(6-(cyclopropylmethyl)-4-(3-methylmorpholino)-6,7-dihydro-5H-pyrrolo[3,4-d]pyrimidin-2-yl)phenyl)-3-methylurea]
2 | 6.51 | CCCNC(=O)Nc1ccc(-c2nc3c(c(N4CCOC[C@@H]4C)n2)CN(CC2CC2)C3)cc1 [Example 49, (S)-1-(4-(6-(cyclopropylmethyl)-4-(3-methylmorpholino)-6,7-dihydro-5H-pyrrolo[3,4-d]pyrimidin-2-yl)phenyl)-3-propylurea]
3 | 6.54 | CCNC(=O)Nc1ccc(-c2nc3c(c(N4CCOC[C@@H]4C)n2)CN(C=O)C3)cc1 [Example 8, (S)-1-ethyl-3-(4-(6-formyl-4-(3-methylmorpholino)-6,7-dihydro-5H-pyrrolo[3,4-d]pyrimidin-2-yl)phenyl)urea]
4 | 6.37 | CC(C)NC(=O)Nc1ccc(-c2nc3c(c(N4CCOC[C@@H]4C)n2)CN(CC2CC2)C3)cc1 [Example 50, (S)-1-(4-(6-(cyclopropylmethyl)-4-(3-methylmorpholino)-6,7-dihydro-5H-pyrrolo[3,4-d]pyrimidin-2-yl)phenyl)-3-isopropylurea]
5 | 7.06 | CCNC(=O)Nc1ccc(-c2nc3c(c(N4CCOC[C@@H]4C)n2)CN(C(=O)C(C)(C)C)C3)cc1 [Example 22, (S)-1-ethyl-3-(4-(4-(3-methylmorpholino)-6-pivaloyl-6,7-dihydro-5H-pyrrolo[3,4-d]pyrimidin-2-yl)phenyl)urea]
6 | 6.16 | C[C@H]1COCCN1c1nc(-c2ccc(NC(N)=O)cc2)nc2c1CN(CC1CC1)C2 [Example 48, (S)-1-(4-(6-(cyclopropylmethyl)-4-(3-methylmorpholino)-6,7-dihydro-5H-pyrrolo[3,4-d]pyrimidin-2-yl)phenyl)urea]
7 | 6.85 | C[C@H]1COCCN1c1nc(-c2ccc(NC(=O)NC3CC3)cc2)nc2c1CN(C(=O)C1CC1)C2 [Example 17, (S)-1-(4-(6-(cyclopropanecarbonyl)-4-(3-methylmorpholino)-6,7-dihydro-5H-pyrrolo[3,4-d]pyrimidin-2-yl)phenyl)-3-cyclopropylurea]
8 | 6.35 | CCNC(=O)Nc1ccc(-c2nc3c(c(N4CCOC[C@@H]4C)n2)CN(C(C)=O)C3)cc1 [Example 18, (S)-1-(4-(6-acetyl-4-(3-methylmorpholino)-6,7-dihydro-5H-pyrrolo[3,4-d]pyrimidin-2-yl)phenyl)-3-ethylurea]
9 | 6.71 | CCNC(=O)Nc1ccc(-c2nc3c(c(N4CCOC[C@@H]4C)n2)CN(C)C3)cc1 [Example 26, (S)-1-ethyl-3-(4-(6-methyl-4-(3-methylmorpholino)-6,7-dihydro-5H-pyrrolo[3,4-d]pyrimidin-2-yl)phenyl)urea]
10 | 6.69 | CC(C)C(=O)N1Cc2nc(-c3ccc(NC(=O)NC4CC4)cc3)nc(N3CCOC[C@@H]3C)c2C1 [Example 44, (S)-1-cyclopropyl-3-(4-(6-isobutyryl-4-(3-methylmorpholino)-6,7-dihydro-5H-pyrrolo[3,4-d]pyrimidin-2-yl)phenyl)urea]
11 | 6.74 | CCNC(=O)Nc1ccc(-c2nc3c(c(N4CCOC[C@@H]4C)n2)CN(S(C)(=O)=O)C3)cc1 [Example 32, (S)-1-ethyl-3-(4-(4-(3-methylmorpholino)-6-(methylsulfonyl)-6,7-dihydro-5H-pyrrolo[3,4-d]pyrimidin-2-yl)phenyl)urea]
12 | 6.48 | CC(=O)N1Cc2nc(-c3ccc(NC(=O)NC4CC4)cc3)nc(N3CCOC[C@@H]3C)c2C1 [Example 20, (S)-1-(4-(6-acetyl-4-(3-methylmorpholino)-6,7-dihydro-5H-pyrrolo[3,4-d]pyrimidin-2-yl)phenyl)-3-cyclopropylurea]
13 | 6.08 | CCNC(=O)Nc1ccc(-c2nc3c(c(N4CCOC[C@@H]4C)n2)CNCC3)cc1 [Example 12, (S)-1-ethyl-3-(4-(4-(3-methylmorpholino)-5,6,7,8-tetrahydropyrido[4,3-d]pyrimidin-2-yl)phenyl)urea]

Source: patent US8785457B2 (Cellzome Limited, priority 2009, dated 2014)
